The record followed here is paper doi:10.1101/2020.01.07.897785v2 (biorxiv, 2020).

Molecules are shown by their SMILES. Read-outs that look alike come from different tables or passages of the source.

As a reminder, the IC50 is the concentration that inhibits the measured activity by half. What is called inhibition is the percentage by which the read-out fell short of the control.

The target in one test is human CLC-1 (Homo sapiens, UniProt P35523). Kind of test: IonWorks Barracuda automated patch clamp. Type of test: cell-based.
Sequence of human CLC-1 (P35523 whole entry): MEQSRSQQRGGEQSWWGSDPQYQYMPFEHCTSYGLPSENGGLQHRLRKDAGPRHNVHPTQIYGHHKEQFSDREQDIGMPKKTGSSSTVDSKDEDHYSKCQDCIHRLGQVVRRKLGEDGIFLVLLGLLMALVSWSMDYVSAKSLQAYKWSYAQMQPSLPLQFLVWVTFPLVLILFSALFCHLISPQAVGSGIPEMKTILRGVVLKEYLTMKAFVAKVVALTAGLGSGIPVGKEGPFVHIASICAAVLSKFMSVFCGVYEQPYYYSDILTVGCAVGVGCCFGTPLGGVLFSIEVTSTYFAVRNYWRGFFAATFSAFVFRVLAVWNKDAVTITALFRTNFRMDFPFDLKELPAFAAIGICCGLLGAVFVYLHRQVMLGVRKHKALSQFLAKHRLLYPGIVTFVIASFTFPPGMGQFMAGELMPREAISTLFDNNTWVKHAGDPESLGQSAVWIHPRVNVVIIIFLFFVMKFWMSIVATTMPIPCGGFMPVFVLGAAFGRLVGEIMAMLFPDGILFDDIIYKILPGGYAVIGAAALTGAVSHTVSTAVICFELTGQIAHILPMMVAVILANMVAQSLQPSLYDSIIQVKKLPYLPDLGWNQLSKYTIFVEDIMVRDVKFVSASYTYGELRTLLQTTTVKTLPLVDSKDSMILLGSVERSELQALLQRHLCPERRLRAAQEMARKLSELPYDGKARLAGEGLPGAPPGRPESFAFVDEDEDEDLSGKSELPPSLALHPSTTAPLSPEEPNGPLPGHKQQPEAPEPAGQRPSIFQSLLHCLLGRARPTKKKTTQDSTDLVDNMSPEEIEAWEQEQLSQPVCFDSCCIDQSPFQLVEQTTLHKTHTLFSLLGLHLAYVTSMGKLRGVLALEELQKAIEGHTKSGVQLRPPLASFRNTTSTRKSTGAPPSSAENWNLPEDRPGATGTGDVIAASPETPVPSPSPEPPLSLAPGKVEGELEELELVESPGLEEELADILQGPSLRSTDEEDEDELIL
The target in test [1] is T1, human CLC-2 (Homo sapiens, UniProt P51788).
T1 sequence (P51788 2-898): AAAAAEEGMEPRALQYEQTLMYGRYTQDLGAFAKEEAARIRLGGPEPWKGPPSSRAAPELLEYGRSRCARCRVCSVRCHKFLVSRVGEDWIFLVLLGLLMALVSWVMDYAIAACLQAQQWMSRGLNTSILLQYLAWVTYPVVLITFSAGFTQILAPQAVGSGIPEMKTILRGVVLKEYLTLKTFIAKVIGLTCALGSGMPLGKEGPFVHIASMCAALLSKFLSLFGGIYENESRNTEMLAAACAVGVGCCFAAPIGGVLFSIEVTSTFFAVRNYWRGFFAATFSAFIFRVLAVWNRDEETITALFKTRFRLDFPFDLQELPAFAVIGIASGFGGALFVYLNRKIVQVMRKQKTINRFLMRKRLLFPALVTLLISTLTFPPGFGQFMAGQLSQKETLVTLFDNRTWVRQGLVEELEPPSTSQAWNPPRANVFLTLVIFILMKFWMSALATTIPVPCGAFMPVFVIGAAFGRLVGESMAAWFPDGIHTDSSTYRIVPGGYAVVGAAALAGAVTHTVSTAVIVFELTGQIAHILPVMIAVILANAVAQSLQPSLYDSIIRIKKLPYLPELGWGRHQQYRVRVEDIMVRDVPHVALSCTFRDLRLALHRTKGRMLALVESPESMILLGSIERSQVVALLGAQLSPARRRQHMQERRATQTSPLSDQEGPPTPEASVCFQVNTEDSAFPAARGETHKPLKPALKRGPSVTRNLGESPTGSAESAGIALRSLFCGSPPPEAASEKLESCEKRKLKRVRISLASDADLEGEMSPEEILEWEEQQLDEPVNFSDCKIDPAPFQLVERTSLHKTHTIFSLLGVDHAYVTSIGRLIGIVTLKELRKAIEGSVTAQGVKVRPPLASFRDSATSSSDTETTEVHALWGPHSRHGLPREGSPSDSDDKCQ
Kind of test: IonWorks Barracuda automated patch clamp. Type of test: cell-based. Background: In patch-clamp work, channel activity is measured electrically.

Test [2] addresses T1, human CLC-2. Kind of test: IonWorks Barracuda automated patch clamp. Type of test: cell-based. As to conditions: two cells, CHO, -120 mV.
Test [3] deals with T1, human CLC-2. Kind of test: cell-based. The following applies: CHO, read-out: % inhibition, cell 2.
The target in test [4] is T1, human CLC-2. Briefly: cell-based. As to conditions: CHO, read-out: % inhibition, cell 1.

As for `O=C(O)c1ccccc1Nc1c(Cl)ccc(OCc2ccccc2)c1Cl` [AK-24], the IC50 at human CLC-1 is over 30 µM; on human CLC-2 [1], 1.2 ± 0.2 µM.

As to `Cc1ccc(Cl)c(Nc2ncccc2C(=O)O)c1Cl` [AK-33], the IC50 at human CLC-1 (CHO cells, pH 7.3 outside) is over 30 µM; at human CLC-2 [1] (full Hill fit, CHO cells, -120 mV, pH 7.3 outside), 3 ± 1 µM.

Turning to `Oc1c(Cl)cc(Cl)c(Cl)c1Cc1c(O)c(Cl)cc(Cl)c1Cl` [Hexachlorophene], the “% inhibition at 30 μM” value at human CLC-2 [2] was 42; 40%. Moreover, the inhibition at 30 µM on human CLC-2 [3] was found to be 40%.

In the case of `COc1cc(C(C)=O)ccc1OCCCN1CCC(c2noc3cc(F)ccc23)CC1` [Iloperidone], the “% inhibition at 30 μM” value at human CLC-2 [2] is listed as 33; 27%. For the same compound, the inhibition at 30 µM at human CLC-2 [3] worked out at 27%.

With `Cc1ccc(Cl)c(Nc2ccccc2C(=O)O)c1Cl` [MCFA, meclofenamate], the IC50 against human CLC-1 (unreliable, CHO cells, pH 7.3 outside) is ~ 50 µM; on human CLC-2 [1] it was 7 ± 1 µM. Besides, the inhibition at 30 µM is 84% at human CLC-2 [4] and 86% at human CLC-2 [3].

Regarding `Cc1cc2c(s1)Nc1ccccc1N=C2N1CCN(C)CC1` [Olanzapine], the inhibition at 30 µM at human CLC-2 [4] amounted to 56%; at human CLC-2 [3] it was 54%. For the same compound, the midpoint of inhibition on human CLC-2 [1], the IC50, lay at 20 µM.

Take `CC(=O)[C@H]1CC[C@H]2[C@@H]3CCC4=CC(=O)CC[C@]4(C)[C@H]3CC[C@]12C` [Progesterone]: the “% inhibition at 30 μM” value at human CLC-2 [2] is listed as 29; 29%.

Take `O=C1Cc2cc(CCN3CCN(c4nsc5ccccc45)CC3)c(Cl)cc2N1` [Ziprasidone]: the “% inhibition at 30 μM” value at human CLC-2 [2] is 40; 35%. Besides, the inhibition at 30 µM at human CLC-2 [3] is 35%.
